The source of these data is PMC3723537, “Structural Basis for Native Agonist and Synthetic Inhibitor Recognition by the Pseudomonas aeruginosa Quorum Sensing Regulator PqsR (MvfR)” (PLoS Pathogens, 2013).

In assay [1] the target is T1, PqsR (Pseudomonas aeruginosa, UniProt Q9I4X0).
T1 sequence (Q9I4X0 1-332): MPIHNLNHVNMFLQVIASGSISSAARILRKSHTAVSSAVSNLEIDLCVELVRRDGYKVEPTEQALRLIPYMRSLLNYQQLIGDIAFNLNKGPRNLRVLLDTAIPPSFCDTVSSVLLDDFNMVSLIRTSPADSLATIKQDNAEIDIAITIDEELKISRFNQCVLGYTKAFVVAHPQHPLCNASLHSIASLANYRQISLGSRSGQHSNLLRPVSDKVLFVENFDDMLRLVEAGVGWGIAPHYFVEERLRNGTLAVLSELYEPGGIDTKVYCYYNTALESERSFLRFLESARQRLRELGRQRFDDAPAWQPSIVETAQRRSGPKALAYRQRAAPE
Particulars: cited from earlier work.

Assay [2] concerns the target T1, PqsR. Description: cell-based. The arrangement: assayed for their agonist and antagonist activities in a whole P. aeruginosa bacterial cell assay; endogenous in cells; host or cells: P. aeruginosa PAO1 wild type, ΔpqsA or ΔpqsAH strains carrying a chromosomal (mini)CTX::pqsA'-lux fusion.
In assay [3] the target is T1, PqsR. The arrangement: assayed for their agonist and antagonist activities in a whole P. aeruginosa bacterial cell assay; endogenous in cells; host or cells: P. aeruginosa PAO1 wild type, ΔpqsA or ΔpqsAH strains carrying a chromosomal (mini)CTX::pqsA'-lux fusion; method as in Xiao et al. [21]. The settings on record: different P. aeruginosa strain and reporter assay; ref Xiao et al. [21]; cited from earlier work.

Assay [4] addresses T1, PqsR. Description: cell-based. Particulars: Figure 2 (AQs); P. aeruginosa ΔpqsA CTX::pqsA'-lux strain; read-out: Agonist EC50 ±SD. Also noted: assayed for their agonist and antagonist activities in a whole P. aeruginosa bacterial cell assay; endogenous in cells; host or cells: P. aeruginosa PAO1 wild type, ΔpqsA or ΔpqsAH strains carrying a chromosomal (mini)CTX::pqsA'-lux fusion.

Assay [5] concerns the target T1, PqsR. The arrangement: assayed for their agonist and antagonist activities in a whole P. aeruginosa bacterial cell assay; endogenous in cells; host or cells: P. aeruginosa PAO1 wild type, ΔpqsA or ΔpqsAH strains carrying a chromosomal (mini)CTX::pqsA'-lux fusion; method as in PMID 17922753. Particulars: whole P. aeruginosa cell assays; cited from earlier work.
The next assay concerns the target PqsR Leu207Glu (Pseudomonas aeruginosa, UniProt Q9I4X0, L207E). Briefly: Response of PqsR-6His ligand binding site variants to PQS and HHQ, pqsA'-lux in ΔpqsA ΔpqsH ΔpqsR strain. Type of assay: cell-based. Particulars: Leu207Glu mutation; co-inducer 40 µM.
In assay [6] the target is T1, PqsR. Format: cell-based. The settings on record: 100 µM QZN; ΔpqsA mutant. The arrangement: assayed for their agonist and antagonist activities in a whole P. aeruginosa bacterial cell assay; endogenous in cells; host or cells: P. aeruginosa PAO1 wild type, ΔpqsA or ΔpqsAH strains carrying a chromosomal (mini)CTX::pqsA'-lux fusion.
The subject of assay [7] is P. aeruginosa PAO1. Briefly: AQ production by LC-MS/MS of culture extracts. Type of assay: cell-based, Pseudomonas aeruginosa. The settings on record: PAO1 grown with 200 µM; semi-quantitative. Here is the method:
(§1) The impact of 3-NH2-7Cl-C9-QZN on (a) AQ production was assayed by LC MS/MS after extracting bacterial cultures with acidified ethyl acetate; (b) pyocyanin was quantified spectrophotometrically and (c) biofilm development was examined using a Bioflux 200 microfluidics device (Fluxion Biosciences; in conjunction with GFP-labelled P. aeruginosa strains, [53]). All assays were performed in triplicate at least twice.

Another assay relates to phzA1 promoter. Format: cell-based. Particulars: 12.5 µM; data not shown.
The test system of a further assay is P. aeruginosa. Format: cell-based. Particulars: GFP-tagged wild type, flow conditions.
A further assay deals with lecA. Format: cell-based. Particulars: P. aeruginosa PAO1, compared with control.
Assay [8] concerns P. aeruginosa PAO1. Description: Pyocyanin production, quantified spectrophotometrically. Type of assay: cell-based, Pseudomonas aeruginosa. Particulars: PAO1 cultures, 50 or 100 µM. As to the method:
as §1

Assay [9] deals with T1, PqsR. Briefly: cell-based. The arrangement: assayed for their agonist and antagonist activities in a whole P. aeruginosa bacterial cell assay; endogenous in cells; host or cells: P. aeruginosa PAO1 wild type, ΔpqsA or ΔpqsAH strains carrying a chromosomal (mini)CTX::pqsA'-lux fusion. This is another data set of the same source.

SMILES strings stand for the structures. Read-outs that look alike come from different tables or passages of the source.

Consider `CCCCCCCc1cc(=O)c2ccc(C(F)(F)F)cc2[nH]1` [7-CF3-substituted HHQ], for which the “Agonist activity relative to HHQ” value at PqsR [1] is recorded as “about 50%”.
What is called EC50 is the concentration at which the effect is half-maximal. On to `CCCCCCCc1[nH]c2ccccc2c(=O)c1O` [compound 1, 2-heptyl-3-hydroxy-4(1H)-quinolone], for which the EC50 at PqsR [2] (Figure 2 (AQs), P. aeruginosa ΔpqsAH CTX::pqsA'-lux strain, read-out: Agonist EC50 ±SD) was found to be 3.8 ± 1.6 µM; at PqsR [4], 1.9 µM. Moreover, the “Induction of the pqsA promoter compared with HHQ” value on PqsR [2] (P. aeruginosa ΔpqsA ΔpqsH double mutant) was ~3 fold. Besides, the “Induction compared with HHQ” value on PqsR [3] is given as 100 fold. Also, at PqsR [5], the “EC50 for PqsR-dependent activation of pqsA” value is on record as “low micromolar range”. Moreover, the “Response, % of pqsA promoter activity with respect to strain expressing PqsR-6His” value at PqsR Leu207Glu stood at 39%.
In general, IC50 refers to the point on the concentration scale where inhibition reaches its midpoint. A low value points to greater potency in that assay. For the molecule `CCCCCCCCCc1nc2cc(Cl)ccc2c(=O)n1N` [compound 23], the “PQS concentration that competitively overcomes QZN-mediated PqsR inhibition” value on PqsR [6] is on record as “above 25 µM”. In addition, the “Production of HHQ, NHQ, their N-oxides and PQS” value with P. aeruginosa PAO1 [7] is listed as “reduced to very low levels”. The “Reduction of phzA1 promoter activity” value with phzA1 promoter is reported as ~50%. Besides, the Biofilm development result with P. aeruginosa was “reduced surface area coverage”. Further, the “Expression of lecA” value with lecA is recorded as “reduced”. Also, the Pyocyanin levels entry in the assay with P. aeruginosa PAO1 [8] is “substantially reduced”. The molecule further gave an IC50 at PqsR [9] of 5 ± 1.6 µM.
